#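 A five-concentration, 48-hour dose response in 96-well plates underlies each endpoint, interpolated linearly between surrounding concentrations. TGI: total growth inhibition.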
# Experiments:
# Test in all cases: NCI tumour cell line growth inhibition, 48 h
# [1] = system: 786-0 renal
# [2] = system: A498 renal
# [3] = system: A549 NSCLC
# [4] = system: ACHN renal
# [5] = system: BT-549 breast
# [6] = system: CAKI-1 renal
# [7] = system: CCRF-CEM leukemia
# [8] = system: COLO 205 colon
# [9] = system: DLD-1 colon
# [10] = system: DMS 114 small cell lung
# [11] = system: DMS 273 small cell lung
# [12] = system: DU-145 prostate
# [13] = system: EKVX NSCLC
# [14] = system: HCC-2998 colon
# [15] = system: HCT-116 colon
# [16] = system: HCT-15 colon
# [17] = system: HL-60(TB) leukemia
# [18] = system: HOP-18 NSCLC
# [19] = system: HOP-62 NSCLC
# [20] = system: HOP-92 NSCLC
# [21] = system: HS 578T breast
# [22] = system: HT29 colon
# [23] = system: IGROV1 ovarian
# [24] = system: K-562 leukemia
# [25] = system: KM12 colon
# [26] = system: LOX IMVI melanoma
# [27] = system: LXFL 529 NSCLC
# [28] = system: M14 melanoma
# [29] = system: M19-MEL melanoma
# [30] = system: MALME-3M melanoma
# [31] = system: MCF7 breast
# [32] = system: MDA-MB-231 breast
# [33] = system: MDA-MB-435
# [34] = system: MDA-N
# [35] = system: MOLT-4 leukemia
# [36] = system: NCI-H226 lung
# [37] = system: NCI-H23 lung
# [38] = system: NCI-H460 lung
# [39] = system: NCI-H522 lung
# [40] = system: NCI/ADR-RES ovarian
# [41] = system: OVCAR-3 ovarian
# [42] = system: OVCAR-4 ovarian
# [43] = system: OVCAR-5 ovarian
# [44] = system: OVCAR-8 ovarian
# [45] = system: PC-3 prostate
# [46] = system: RPMI-8226 leukemia
# [47] = system: RXF 393 renal
# [48] = system: SF-268 CNS
# [49] = system: SF-295 CNS
# [50] = system: SF-539 CNS
# [51] = system: SK-MEL-2 melanoma
# [52] = system: SK-MEL-28 melanoma
# [53] = system: SK-MEL-5 melanoma
# [54] = system: SK-OV-3 ovarian
# [55] = system: SN12C renal
# [56] = system: SNB-19 CNS
# [57] = system: SNB-75 CNS
# [58] = system: SNB-78 CNS
# [59] = system: SR leukemia
# [60] = system: SW-620 colon
# [61] = system: T-47D breast
# [62] = system: TK-10 renal
# [63] = system: U251 CNS
# [64] = system: UACC-257 melanoma
# [65] = system: UACC-62 melanoma
# [66] = system: UO-31 renal
# [67] = system: XF 498 CNS
# [68] = system: KM20L2 colon
# [69] = system: RXF-631 renal
smiles,measurement,setting,value
O=C1CCC(c2ccccc2)=NN1c1nc2ccccc2s1,TGI,[1],> 100 µM
same,TGI,[2],> 100 µM
same,TGI,[3],> 100 µM
same,TGI,[4],> 100 µM
same,TGI,[5],82.5 µM
same,TGI,[6],> 100 µM
same,TGI,[7],71.8 µM
same,TGI,[8],18.1 µM
same,TGI,[9],> 100 µM
same,TGI,[10],> 100 µM
same,TGI,[11],> 100 µM
same,TGI,[12],64.6 µM
same,TGI,[13],> 100 µM
same,TGI,[14],> 61 µM
same,TGI,[15],> 88.2 µM
same,TGI,[16],99.1 µM
same,TGI,[17],99.2 µM
same,TGI,[18],> 100 µM
same,TGI,[19],> 100 µM
same,TGI,[20],> 73.8 µM
same,TGI,[21],> 100 µM
same,TGI,[22],> 100 µM
same,TGI,[23],> 100 µM
same,TGI,[24],> 100 µM
same,TGI,[25],> 100 µM
same,TGI,[26],> 100 µM
same,TGI,[27],> 100 µM
same,TGI,[28],> 100 µM
same,TGI,[29],> 100 µM
same,TGI,[30],95.6 µM
same,TGI,[31],> 100 µM
same,TGI,[32],55.9 µM
same,TGI,[33],69.7 µM
same,TGI,[34],> 100 µM
same,TGI,[35],> 94.4 µM
same,TGI,[36],> 100 µM
same,TGI,[37],> 84.6 µM
same,TGI,[38],> 64.4 µM
same,TGI,[39],59 µM
same,TGI,[40],76.6 µM
same,TGI,[41],42.4 µM
same,TGI,[42],> 100 µM
same,TGI,[43],> 100 µM
same,TGI,[44],> 100 µM
same,TGI,[45],69.2 µM
same,TGI,[46],> 87.9 µM
same,TGI,[47],34.1 µM
same,TGI,[48],> 83 µM
same,TGI,[49],> 85.2 µM
same,TGI,[50],> 63.7 µM
same,TGI,[51],42.5 µM
same,TGI,[52],> 100 µM
same,TGI,[53],53.1 µM
same,TGI,[54],79.6 µM
same,TGI,[55],> 94.1 µM
same,TGI,[56],> 100 µM
same,TGI,[57],> 79.4 µM
same,TGI,[58],> 100 µM
same,TGI,[59],> 84.6 µM
same,TGI,[60],> 100 µM
same,TGI,[61],32.7 µM
same,TGI,[62],> 88 µM
same,TGI,[63],> 100 µM
same,TGI,[64],> 80.2 µM
same,TGI,[65],> 100 µM
same,TGI,[66],> 100 µM
same,TGI,[67],86.7 µM
Cc1nc2ccc(NCCN(C)C)c3c(=O)c4ccccc4n1c23,TGI,[1],15.7 µM
same,TGI,[2],12.1 µM
same,TGI,[3],6.42 µM
same,TGI,[4],22.3 µM
same,TGI,[5],23.6 µM
same,TGI,[6],13.8 µM
same,TGI,[7],47.5 µM
same,TGI,[8],11.8 µM
same,TGI,[9],21.3 µM
same,TGI,[10],21.5 µM
same,TGI,[12],6.87 µM
same,TGI,[13],14.2 µM
same,TGI,[14],16.7 µM
same,TGI,[15],13.8 µM
same,TGI,[16],6.22 µM
same,TGI,[17],> 47.5 µM
same,TGI,[18],51.2 µM
same,TGI,[19],19.1 µM
same,TGI,[20],14.2 µM
same,TGI,[21],9.15 µM
same,TGI,[22],10.8 µM
same,TGI,[23],16.6 µM
same,TGI,[24],> 54.8 µM
same,TGI,[25],13.1 µM
same,TGI,[68],16.9 µM
same,TGI,[26],2.96 µM
same,TGI,[27],22.6 µM
same,TGI,[28],16.4 µM
same,TGI,[29],19.5 µM
same,TGI,[30],18.5 µM
same,TGI,[31],23.3 µM
same,TGI,[32],5.8 µM
same,TGI,[33],16.1 µM
same,TGI,[34],12.4 µM
same,TGI,[35],22.2 µM
same,TGI,[36],8.69 µM
same,TGI,[37],9.94 µM
same,TGI,[38],10.8 µM
same,TGI,[39],9.91 µM
same,TGI,[40],6.83 µM
same,TGI,[41],35.6 µM
same,TGI,[42],6.82 µM
same,TGI,[43],21 µM
same,TGI,[44],10.1 µM
same,TGI,[45],8.8 µM
same,TGI,[46],26.2 µM
same,TGI,[47],22.9 µM
same,TGI,[69],15.8 µM
same,TGI,[48],20.2 µM
same,TGI,[49],14.2 µM
same,TGI,[50],16 µM
same,TGI,[51],18.8 µM
same,TGI,[52],21 µM
same,TGI,[53],8.95 µM
same,TGI,[54],36.7 µM
same,TGI,[55],40.1 µM
same,TGI,[56],47.8 µM
same,TGI,[57],17.8 µM
same,TGI,[58],23.9 µM
same,TGI,[59],10.6 µM
same,TGI,[60],9.15 µM
same,TGI,[61],39.7 µM
same,TGI,[62],38.5 µM
same,TGI,[63],16.2 µM
same,TGI,[64],17.6 µM
same,TGI,[65],20.2 µM
same,TGI,[66],11.1 µM
CN1NC(c2ccc(Cl)cc2)=C(C#N)C(=O)CC1c1ccccc1 (centres undefined),TGI,[1],> 100 µM
same,TGI,[2],> 100 µM
same,TGI,[3],> 100 µM
same,TGI,[4],> 100 µM
same,TGI,[6],> 100 µM
same,TGI,[8],> 100 µM
same,TGI,[9],> 100 µM
same,TGI,[10],> 100 µM
same,TGI,[11],> 100 µM
same,TGI,[15],> 100 µM
same,TGI,[16],> 100 µM
same,TGI,[17],> 100 µM
same,TGI,[18],> 100 µM
same,TGI,[20],> 100 µM
same,TGI,[22],> 100 µM
same,TGI,[25],> 100 µM
same,TGI,[68],> 100 µM
same,TGI,[26],> 100 µM
same,TGI,[27],> 100 µM
same,TGI,[37],> 100 µM
same,TGI,[38],> 100 µM
same,TGI,[39],> 100 µM
same,TGI,[42],> 100 µM
same,TGI,[43],> 100 µM
same,TGI,[46],> 100 µM
same,TGI,[47],> 100 µM
same,TGI,[69],> 100 µM
same,TGI,[48],> 100 µM
same,TGI,[49],> 100 µM
same,TGI,[51],> 100 µM
same,TGI,[52],> 100 µM
same,TGI,[53],> 100 µM
same,TGI,[54],> 100 µM
same,TGI,[56],> 100 µM
same,TGI,[57],> 100 µM
same,TGI,[59],> 100 µM
same,TGI,[60],> 100 µM
same,TGI,[62],> 100 µM
same,TGI,[63],> 100 µM
same,TGI,[64],> 100 µM

# Source: PubChem BioAssay (NCI)
